In US20230348369A1 (Cytokinetics, Inc., priority 2020, published 2023):

Target: human NAMPT (Homo sapiens, UniProt P43490)
Assay: Human recombinant enzyme assay (NMN fluorescence biochemical assay, activation of NAMPT)
Conditions: Table A, human recombinant NAMPT, NMN formation, 60 min; for EC50: read-out: EC50 Human
How it was run: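 NMN production is detected fluorometrically (Ex 355/Em 460 nm) 40 min after acetophenone, KOH and formic acid derivatization. Reactions ran 60 min at ambient temperature: 6 nM human NAMPT, nicotinamide 150 μM, PRPP 20 μM, ATP 2.5 mM, buffered at pH 7.2 with 50 mM HEPES plus DTT, CHAPS, NaCl and 100 mM MgCl2.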

Sequence of human NAMPT (P43490 whole entry): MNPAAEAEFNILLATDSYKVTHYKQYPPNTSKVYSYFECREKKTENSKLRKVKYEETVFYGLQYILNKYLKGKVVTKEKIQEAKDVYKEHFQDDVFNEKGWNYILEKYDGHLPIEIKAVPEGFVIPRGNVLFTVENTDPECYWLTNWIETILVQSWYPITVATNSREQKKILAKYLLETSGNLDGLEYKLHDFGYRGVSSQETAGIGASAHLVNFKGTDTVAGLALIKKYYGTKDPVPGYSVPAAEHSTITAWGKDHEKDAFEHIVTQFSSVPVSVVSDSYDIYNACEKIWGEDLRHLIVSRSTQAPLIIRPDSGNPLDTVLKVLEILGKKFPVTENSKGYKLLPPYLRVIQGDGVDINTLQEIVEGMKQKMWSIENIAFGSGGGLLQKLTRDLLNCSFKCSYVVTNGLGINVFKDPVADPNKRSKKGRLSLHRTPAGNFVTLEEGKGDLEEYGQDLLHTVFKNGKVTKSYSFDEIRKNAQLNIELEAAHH

**Q.** `O=C(NCCCCC1CCN(C(=O)c2ccncc2)CC1)NCc1ccc(Cl)cc1` [Compound 290, 1-(4-chlorobenzyl)-3-(4-(1-isonicotinoylpiperidin-4-yl)butyl)urea] was tested. Which “AC1.4 Human” value did it give?
**A.** Its value is 1.3 µM.

**Q.** And the EC50?
**A.** The EC50 was 6.2 µM.

**Q.** Which “AC1.4 Human” value does the source give for `O=C(NCCCCC1CCN(C(=O)Cc2ccccc2)CC1)NCc1ccc(Cl)cc1` [Compound 291, 1-(4-chlorobenzyl)-3-(4-(1-(2-phenylacetyl)piperidin-4-yl)butyl)urea] here?
**A.** The value was 1.9 µM.

**Q.** What about the EC50 of the same molecule?
**A.** Its EC50 is 4.6 µM.

**Q.** For `O=C(NCCCCC1CCN(C(=O)c2ccccn2)CC1)NCc1ccc(Cl)cc1` [Compound 292, 1-(4-chlorobenzyl)-3-(4-(1-picolinoylpiperidin-4-yl)butyl)urea], which “AC1.4 Human” value is on record?
**A.** The value was 0.5 µM.

**Q.** What about the EC50 of the same molecule?
**A.** The EC50 was 2 µM.

**Q.** `O=C(NCCCCC1CCN(C(=O)Cc2cccnc2)CC1)NCc1ccc(Cl)cc1` [Compound 294, 1-(4-chlorobenzyl)-3-(4-(1-(2-(pyridin-3-yl)acetyl)piperidin-4-yl)butyl)urea] was tested. Which “AC1.4 Human” value did it give?
**A.** The value was 1.0 µM.

**Q.** What about the EC50 of the same molecule?
**A.** Its EC50 is 10.1 µM.

**Q.** Which results are given for `O=C(NCCCCC1CCN(C(=O)Cc2ccncc2)CC1)NCc1ccc(Cl)cc1` [Compound 295, 1-(4-chlorobenzyl)-3-(4-(1-(2-(pyridin-4-yl)acetyl)piperidin-4-yl)butyl)urea]?
**A.** AC1.4 Human: 1.2 µM; EC50: 8.4 µM

**Q.** Which “AC1.4 Human” value does the source give for `Cc1cccc(CC(=O)N2CCC(CCCCNC(=O)NCc3ccc(Cl)cc3)CC2)n1` [Compound 299, 1-(4-chlorobenzyl)-3-(4-(1-(2-(6-methylpyridin-2-yl)acetyl)piperidin-4-yl)butyl)urea] here?
**A.** Its value is 1.0 µM.

**Q.** What about the EC50 of the same molecule?
**A.** Its EC50 is 3.8 µM.

**Q.** For `O=C(NCCCCC1CCN(C(=O)C2CCOCC2)CC1)NCc1ccc(Cl)cc1` [Compound 300, 1-(4-chlorobenzyl)-3-(4-(1-(tetrahydro-2H-pyran-4-carbonyl)piperidin-4-yl)butyl)urea], which “AC1.4 Human” value is on record?
**A.** The value was 1.4 µM.

**Q.** And the EC50?
**A.** Its EC50 is 6.5 µM.

**Q.** What does the source list for `O=C1CC(C(=O)N2CCC(CCCCNC(=O)NCc3ccc(Cl)cc3)CC2)CCN1` (stereo not drawn) [Compound 301, 1-(4-chlorobenzyl)-3-(4-(1-(2-oxopiperidine-4-carbonyl)piperidin-4-yl)butyl)urea]?
**A.** AC1.4 Human: 2.7 µM; EC50: 26.3 µM

**Q.** How did the “AC1.4 Human” value turn out when `CN1CCC(C(=O)N2CCC(CCCCNC(=O)NCc3ccc(Cl)cc3)CC2)CC1=O` (stereo not drawn) [Compound 302, 1-(4-chlorobenzyl)-3-(4-(1-(1-methyl-2-oxopiperidine-4-carbonyl)piperidin-4-yl)butyl)urea] was run?
**A.** The value was 2.0 µM.

**Q.** What about the EC50 of the same molecule?
**A.** The EC50 was 7.9 µM.

**Q.** How did the “AC1.4 Human” value turn out when `O=C1CC(C(=O)N2CCC(CCCCNC(=O)NCc3ccc(Cl)cc3)CC2)CN1` (stereo not drawn) [Compound 303, 1-(4-chlorobenzyl)-3-(4-(1-(5-oxopyrrolidine-3-carbonyl)piperidin-4-yl)butyl)urea] was run?
**A.** Its value is 2.6 µM.

**Q.** What about the EC50 of the same molecule?
**A.** The EC50 was 15.6 µM.

**Q.** How did the “AC1.4 Human” value turn out when `CN1CC(C(=O)N2CCC(CCCCNC(=O)NCc3ccc(Cl)cc3)CC2)CC1=O` (stereo not drawn) [Compound 304, 1-(4-chlorobenzyl)-3-(4-(1-(1-methyl-5-oxopyrrolidine-3-carbonyl)piperidin-4-yl)butyl)urea] was run?
**A.** Its value is 1.7 µM.

**Q.** What about the EC50 of the same molecule?
**A.** Its EC50 is 10.6 µM.

**Q.** Which results are given for `O=C(NCCCCC1CCN(C(=O)c2ncco2)CC1)NCc1ccc(Cl)cc1` [Compound 305, 1-(4-chlorobenzyl)-3-(4-(1-(oxazole-2-carbonyl)piperidin-4-yl)butyl)urea]?
**A.** AC1.4 Human: 0.2 µM; EC50: 0.4 µM

**Q.** How did the “AC1.4 Human” value turn out when `O=C(NCCCCC1CCN(C(=O)c2ccno2)CC1)NCc1ccc(Cl)cc1` [Compound 306, 1-(4-chlorobenzyl)-3-(4-(1-(isoxazole-5-carbonyl)piperidin-4-yl)butyl)urea] was run?
**A.** Its value is 0.4 µM.

**Q.** What about the EC50 of the same molecule?
**A.** The EC50 was 1.2 µM.

**Q.** Which “AC1.4 Human” value does the source give for `O=C(NCCCCC1CCN(c2ccccn2)CC1)NCc1ccc(Cl)cc1` [Compound 307, 1-(4-chlorobenzyl)-3-(4-(1-(pyridin-2-yl)piperidin-4-yl)butyl)urea] here?
**A.** The value was 1.9 µM.

**Q.** What about the EC50 of the same molecule?
**A.** Its EC50 is 7.3 µM.

**Q.** What does the source list for `O=C(NCCCCC1CCN(c2ccncc2)CC1)NCc1ccc(Cl)cc1` [Compound 308, 1-(4-chlorobenzyl)-3-(4-(1-(pyridin-4-yl)piperidin-4-yl)butyl)urea]?
**A.** AC1.4 Human: 2.2 µM; EC50: 5 µM
